The values that follow come from patent US20090253768A1, “THERAPEUTIC COMPOUNDS FOR DISEASES AND DISORDERS” (Myriad Genetics, Incorporated, priority 2006, published 2009).

Structures are written as SMILES.

The test relates to khc/+; klc/+ Drosophila larvae. Kind of test: Suppression of the flipper (tail-flipping) motor dysfunction phenotype in an animal model. Conditions: for larvae effectively "cured" of their motor dysfunction: after accounting for penetrance. It counts as in vivo, Drosophila melanogaster. An excerpt: A stock of fruit flies (Drosophila melanogaster) was generated that is heterozygous for both KHC and KLC, which encode proteins that associate to form functional kinesin-1, also called conventional kinesin. […] A number of factors that contribute to this incomplete penetrance were identified, including the following: • 1. The flipper phenotype of a given animal appears to be suppressed by the number of larvae that precede the animal in development. That is, if a larva is among the first to develop in a vial of eggs, it is more likely to show the flipper phenotype than if it is one of the last to emerge. • 2. The flipper phenotype appears to be less robust on hard media than it is on soft media. • 3. The phenotype is diminished by physically disturbing the larvae. • 4. The clearest expression of the flipper phenotype is restricted to that phase of the 3rd instar stage of development that follows the appearance of spiracles.
Attempts to accommodate these observations were mad in order to optimize penetrance of the phenotype. Specifically: • 1. Virgin females and males were confined to a single vial for only 2 days; the flies were then transferred to fresh vials for an additional 2 days; and this process was repeated to minimize the number of larvae that would emerge in each vial. • 2. Efforts were taken to minimize handling of the larvae. • 3. Attempts were made to score the phenotype late in the 3rd instar stage of development.
In a non-blinded experiment, compound 16 (Tables 1 and 2) was tested for its ability to suppress the flipper phenotype of khc/+; klc/+ Drosophila larvae (using the animal model described in Example 7), relative to vehicle (DMSO) alone. Specifically khc/+; klc/+ Drosophila larvae were grown in the presence or absence of 0.5 mM compound 16 and scored for motor dysfunction. A total of 151 larvae were scored, 77 in the vehicle-only group and 74 in the vehicle plus compound group. […] The ratio of Flipper to Non-Flipper phenotype observed in the vehicle-only group corresponds to an 81% penetrance of the flipper phenotype in this experiment. […] Note that equivalent conclusions were obtained if, instead of scoring the number of larvae with and without motor dysfunction, the severity of the aberrant movement was analyzed.
This experiment was repeated using a blinded format and a total of 221 larvae were scored. Of the larvae in this study 104 larvae were in the vehicle-only group and 117 larvae were in the treatment group. […] The results of this second study are quite similar to those of the first study: after accounting for the differences in penetrance between the studies, compound 16 effectively “cured” 42% of the larvae of their motor dysfunction in the first experiment, and 43% of the larvae in the second experiment.

As for `Cc1c(-c2ccccc2)cc(-c2ccc(C(F)(F)F)cc2)n1-c1ccc(CCCC(=O)O)cc1` [Compound 16, 4-{4-[2-Methyl-3-phenyl-5-(4-trifluoromethyl-phenyl)-pyrrol-1-yl]-phenyl}-butyric acid], the “reduction in flipper phenotype relative to vehicle” value (blinded repeat, 117 treated vs 104 vehicle larvae, vehicle penetrance 78%, Yates' chi-square p <1x10^-6) is “highly significant reduction in flipper phenotype”. For the same compound, the “larvae effectively "cured" of their motor dysfunction” value turned out to be 42% (first (non-blinded) experiment, 0.5 mM) and 43% (second (blinded) experiment). For the same compound, for the setting “non-blinded experiment, larvae grown with 0.5 mM compound, 74 treated vs 77 vehicle larvae, vehicle penetrance 81%, Fischer's test p less than 10^-4”, the “suppression of the Flipper phenotype relative to vehicle (DMSO)” value is recorded as “significant suppression of the Flipper phenotype”.
